“And” between values parts separate entries of the source, which are not always exact repeats. Identical values can stand only once.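 Following 48 hours of exposure in 96-well plates, responses at five concentrations were used to interpolate endpoints linearly. GI50: concentration for 50% inhibition of growth. TGI: concentration producing complete growth inhibition.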
Legend:
Experiment in all cases: NCI tumour cell line growth inhibition, 48 h; in the data active means GI50 below about 0.43 µM; inactive means the rest
786-0 renal = system: 786-0 renal
A498 renal = system: A498 renal
A549 NSCLC = system: A549 NSCLC
ACHN renal = system: ACHN renal
BT-549 breast = system: BT-549 breast
CCRF-CEM leukemia = system: CCRF-CEM leukemia
COLO 205 colon = system: COLO 205 colon
DLD-1 colon = system: DLD-1 colon
DMS 114 small cell lung = system: DMS 114 small cell lung
DMS 273 small cell lung = system: DMS 273 small cell lung
DU-145 prostate = system: DU-145 prostate
EKVX NSCLC = system: EKVX NSCLC
HCC-2998 colon = system: HCC-2998 colon
HCT-116 colon = system: HCT-116 colon
HCT-15 colon = system: HCT-15 colon
HL-60(TB) leukemia = system: HL-60(TB) leukemia
HOP-62 NSCLC = system: HOP-62 NSCLC
HOP-92 NSCLC = system: HOP-92 NSCLC
HS 578T breast = system: HS 578T breast
HT29 colon = system: HT29 colon
IGROV1 ovarian = system: IGROV1 ovarian
K-562 leukemia = system: K-562 leukemia
KM12 colon = system: KM12 colon
KM20L2 colon = system: KM20L2 colon
LOX IMVI melanoma = system: LOX IMVI melanoma
M14 melanoma = system: M14 melanoma
M19-MEL melanoma = system: M19-MEL melanoma
MALME-3M melanoma = system: MALME-3M melanoma
MCF7 breast = system: MCF7 breast
MDA-MB-231 breast = system: MDA-MB-231 breast
MDA-MB-435 = system: MDA-MB-435
MDA-N = system: MDA-N
MOLT-4 leukemia = system: MOLT-4 leukemia
NCI-H226 lung = system: NCI-H226 lung
NCI-H23 lung = system: NCI-H23 lung
NCI-H460 lung = system: NCI-H460 lung
NCI-H522 lung = system: NCI-H522 lung
NCI/ADR-RES ovarian = system: NCI/ADR-RES ovarian
OVCAR-3 ovarian = system: OVCAR-3 ovarian
OVCAR-4 ovarian = system: OVCAR-4 ovarian
OVCAR-5 ovarian = system: OVCAR-5 ovarian
P388 leukemia = system: P388 leukemia
P388/ADR leukemia = system: P388/ADR leukemia
PC-3 prostate = system: PC-3 prostate
RPMI-8226 leukemia = system: RPMI-8226 leukemia
RXF 393 renal = system: RXF 393 renal
SF-268 CNS = system: SF-268 CNS
SF-295 CNS = system: SF-295 CNS
SF-539 CNS = system: SF-539 CNS
SK-MEL-2 melanoma = system: SK-MEL-2 melanoma
SK-MEL-28 melanoma = system: SK-MEL-28 melanoma
SK-MEL-5 melanoma = system: SK-MEL-5 melanoma
SK-OV-3 ovarian = system: SK-OV-3 ovarian
SN12C renal = system: SN12C renal
SN12K1 renal = system: SN12K1 renal
SNB-19 CNS = system: SNB-19 CNS
SNB-75 CNS = system: SNB-75 CNS
SNB-78 CNS = system: SNB-78 CNS
SR leukemia = system: SR leukemia
SW-620 colon = system: SW-620 colon
T-47D breast = system: T-47D breast
TK-10 renal = system: TK-10 renal
U251 CNS = system: U251 CNS
UACC-257 melanoma = system: UACC-257 melanoma
UACC-62 melanoma = system: UACC-62 melanoma
UO-31 renal = system: UO-31 renal
XF 498 CNS = system: XF 498 CNS

C[C@]12CC[C@H](OC3OC(CO)C(O)C(O)C3O)C[C@H]1CC[C@@H]1[C@@H]2CC[C@]2(C)[C@@H](C3=CCOC3=O)CC[C@]12O (stereo partly drawn)
47.2 µM and > 100 µM: TGI (MCF7 breast) | TGI (U251 CNS)
37 µM and > 100 µM: TGI (RXF 393 renal)
26.4 µM and > 100 µM: TGI (NCI-H226 lung)
29.4 µM: TGI (NCI-H460 lung)
13.8 µM and > 100 µM and 50.3 µM: TGI (HOP-62 NSCLC)
29.3 µM and > 100 µM: TGI (EKVX NSCLC)
50 µM and > 100 µM: TGI (A549 NSCLC) | TGI (CCRF-CEM leukemia) | TGI (COLO 205 colon) | TGI (HCC-2998 colon) | TGI (HCT-116 colon) | TGI (HCT-15 colon) | TGI (HT29 colon) | TGI (IGROV1 ovarian) | TGI (K-562 leukemia) | TGI (KM12 colon) | TGI (MOLT-4 leukemia) | TGI (NCI-H23 lung) | TGI (NCI-H522 lung) | TGI (NCI/ADR-RES ovarian) | TGI (OVCAR-3 ovarian) | TGI (OVCAR-4 ovarian) | TGI (SF-268 CNS) | TGI (SK-MEL-2 melanoma) | TGI (SK-MEL-28 melanoma) | TGI (SN12C renal) | TGI (SNB-19 CNS) | TGI (SW-620 colon) | TGI (UACC-257 melanoma) | TGI (UO-31 renal)
20.9 µM: TGI (P388 leukemia)
inactive: GI50 (786-0 renal) 15.4 µM | GI50 (A498 renal) > 100 µM | GI50 (A549 NSCLC) > 100 µM and 84.5 µM | GI50 (CCRF-CEM leukemia) 23.4 µM and > 100 µM | GI50 (COLO 205 colon) > 100 µM | GI50 (DU-145 prostate) 70.6 µM | GI50 (EKVX NSCLC) > 100 µM | GI50 (HCC-2998 colon) > 100 µM | GI50 (HCT-116 colon) > 100 µM and 51.3 µM | GI50 (HCT-15 colon) > 100 µM | GI50 (HL-60(TB) leukemia) > 100 µM | GI50 (HOP-92 NSCLC) > 100 µM | GI50 (HT29 colon) > 100 µM | GI50 (IGROV1 ovarian) > 100 µM | GI50 (K-562 leukemia) > 100 µM | GI50 (KM12 colon) > 100 µM | GI50 (LOX IMVI melanoma) > 100 µM | GI50 (MALME-3M melanoma) 23 µM and 16.2 µM | GI50 (MCF7 breast) > 100 µM | GI50 (MOLT-4 leukemia) 22.5 µM and > 100 µM | GI50 (NCI-H23 lung) > 100 µM | GI50 (NCI-H460 lung) 0.943 µM and 4.26 µM | GI50 (NCI-H522 lung) 74.9 µM and 10.1 µM | GI50 (NCI/ADR-RES ovarian) > 100 µM | GI50 (OVCAR-3 ovarian) 42.1 µM and > 100 µM | GI50 (OVCAR-4 ovarian) > 100 µM and 20.7 µM | GI50 (OVCAR-5 ovarian) > 100 µM | GI50 (RXF 393 renal) > 100 µM and 89.2 µM | GI50 (SF-268 CNS) > 100 µM and 27.1 µM | GI50 (SK-MEL-2 melanoma) > 100 µM | GI50 (SK-MEL-28 melanoma) > 100 µM | GI50 (SK-MEL-5 melanoma) > 100 µM | GI50 (SK-OV-3 ovarian) > 100 µM | GI50 (SN12C renal) > 100 µM | GI50 (SNB-19 CNS) 23.4 µM and > 100 µM | GI50 (SW-620 colon) > 100 µM | GI50 (T-47D breast) 4.89 µM | GI50 (UACC-257 melanoma) 21.9 µM and > 100 µM | GI50 (UO-31 renal) > 100 µM
24.6 µM and > 100 µM and 70.7 µM: TGI (SF-295 CNS)
25.1 µM: TGI (DMS 273 small cell lung)
28 µM and > 100 µM: TGI (HL-60(TB) leukemia)
30.8 µM and > 100 µM: TGI (UACC-62 melanoma)
50 µM: TGI (DMS 114 small cell lung) | TGI (KM20L2 colon) | TGI (P388/ADR leukemia) | TGI (SNB-78 CNS)
20.4 µM and > 100 µM: TGI (MALME-3M melanoma)
19.5 µM and > 100 µM: TGI (RPMI-8226 leukemia)
45.7 µM and > 100 µM: TGI (SK-MEL-5 melanoma)
37.9 µM: TGI (M19-MEL melanoma)
25.3 µM and > 100 µM: TGI (LOX IMVI melanoma)
41.5 µM: TGI (SN12K1 renal)
31.6 µM and > 100 µM: TGI (SNB-75 CNS)
11.2 µM: TGI (XF 498 CNS)
7.96 µM and 1.6 µM: TGI (SF-539 CNS)
> 100 µM: TGI (786-0 renal) | TGI (ACHN renal) | TGI (BT-549 breast) | TGI (DU-145 prostate) | TGI (HS 578T breast) | TGI (M14 melanoma) | TGI (MDA-MB-231 breast) | TGI (MDA-MB-435) | TGI (MDA-N) | TGI (OVCAR-5 ovarian) | TGI (PC-3 prostate) | TGI (SK-OV-3 ovarian) | TGI (SR leukemia) | TGI (T-47D breast) | TGI (TK-10 renal)
> 50 µM: TGI (DLD-1 colon)
21.1 µM and > 100 µM: TGI (A498 renal)
31.1 µM and > 100 µM: TGI (HOP-92 NSCLC)
active: GI50 (ACHN renal) 0.183 µM | GI50 (SF-539 CNS) 0.198 µM

From PubChem BioAssay (NCI)
